Results from the supplement of paper PMC10307832.

How the values were obtained:
Assay in all cases: relative viability (nuclei count vs DMSO), 5 days (fraction); higher = more cells survive
[1] = compound: NC(=O)c1ccc(N(C(N)=O)c2c(F)cccc2F)nc1-c1ccc(F)cc1F [VX-702] + C[C@]1(O)C[C@@H](c2nc(-c3ccc4ccc(-c5ccccc5)nc4c3)c3c(N)nccn32)C1 [Linsitinib] (partner 1 µM)
Outline: (§1)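 Dosing by pin tool came one day after lung cancer cell lines were seeded in 1536-well plates, using either one drug or a fixed anchor-drug dose plus five library-drug doses (not always all listed) in √10 steps. After 5 days, nuclei were counted on 4× images. Relative viability is treated-well nuclei count divided by vehicle-well nuclei count, and values are medians of duplicate plates.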

[2] = compound: CC(C)(C)c1nc(-c2cccc(NS(=O)(=O)c3c(F)cccc3F)c2F)c(-c2ccnc(N)n2)s1 [Dabrafenib] + Cc1nc(NC(=O)N2CCC[C@H]2C(N)=O)sc1-c1ccnc(C(C)(C)C(F)(F)F)c1 [Alpelisib] (partner 2 µM)
Outline: as §1

[3] = compound: CC(C)(C)c1nc(-c2cccc(NS(=O)(=O)c3c(F)cccc3F)c2F)c(-c2ccnc(N)n2)s1 [Dabrafenib] + O=C(c1cc(Cc2n[nH]c(=O)c3ccccc23)ccc1F)N1CCN(C(=O)C2CC2)CC1 [Olaparib] (partner 8 µM)
Outline: as §1

[4] = compound: NC(=O)c1ccc(N(C(N)=O)c2c(F)cccc2F)nc1-c1ccc(F)cc1F [VX-702] + CC(C)C[C@H](NC(=O)[C@H](Cc1ccccc1)NC(=O)c1cnccn1)B(O)O [Bortezomib] (partner 0.002 µM)
Outline: as §1

Cell Line | relative viability ([1]; first compound 0.02 µM) | relative viability ([1]; first compound 0.2 µM) | relative viability ([1]; first compound 0.6325 µM) | relative viability ([1]; first compound 2 µM) | relative viability ([2]; first compound 0.003 µM) | relative viability ([2]; first compound 0.009487 µM) | relative viability ([2]; first compound 0.03 µM) | relative viability ([2]; first compound 0.09487 µM) | relative viability ([2]; first compound 0.3 µM) | relative viability ([3]; first compound 0.003 µM) | relative viability ([3]; first compound 0.009487 µM) | relative viability ([3]; first compound 0.03 µM) | relative viability ([3]; first compound 0.09487 µM) | relative viability ([3]; first compound 0.3 µM) | relative viability ([4]; first compound 0.02 µM) | relative viability ([4]; first compound 0.2 µM) | relative viability ([4]; first compound 0.6325 µM) | relative viability ([4]; first compound 2 µM)
201T | 0.958 | 1.03 | 0.986 | 0.987 | 1.06 | 1.08 | 0.932 | 1.01 | 1.05 | 0.87 | 0.836 | 0.762 | 0.811 | 0.841 | 1.13 | 1.07 | 1.17 | 1.17
A549 | 0.502 | 0.579 | 0.57 | 0.563 | 0.641 | 0.949 | 0.83 | 0.754 | 0.705 | – | 0.34 | 0.293 | 0.112 | 0.317 | – | – | – | –
A-427 | 1.1 | 1.05 | 1.17 | 1.17 | – | 1.18 | 0.885 | 0.932 | 1.1 | 0.704 | 0.685 | 0.707 | 0.658 | 0.726 | 0.984 | 0.947 | 0.988 | 1.05
ABC-1 | 0.661 | – | 0.925 | 1.16 | – | 0.934 | 1.14 | 1.13 | 1.28 | – | 0.707 | 0.953 | 0.849 | 1.26 | 0.35 | – | 0.26 | 0.329
BEN | 0.828 | 0.798 | 0.967 | 0.852 | – | 1.16 | – | 0.974 | 1.17 | – | 1.24 | – | 1.02 | 1.18 | 0.823 | 0.545 | 0.658 | 0.922
CAL-12T | 0.815 | 0.898 | 0.722 | 0.881 | 1.38 | 1.33 | 1.27 | 1.14 | 1.45 | 0.657 | 0.685 | 0.671 | 0.574 | 0.76 | 1.02 | 0.928 | 0.885 | 1.06
COR-L23 | 1.09 | 1.06 | 0.959 | 1.26 | 0.715 | 0.784 | 0.713 | 0.678 | 0.85 | 0.394 | 0.291 | 0.312 | 0.325 | 0.324 | 1.08 | 1.02 | 1.15 | 1.21
COR-L 105 | 0.965 | 0.916 | 0.956 | 1.4 | 0.829 | 1.08 | 1.16 | 1.13 | 1.14 | 0.685 | 0.793 | 0.702 | 0.599 | 0.799 | 0.957 | 0.888 | 0.907 | 0.54
Calu-6 | – | 0.967 | 1.09 | 1.02 | 0.964 | 0.896 | 0.92 | 0.723 | 0.593 | 0.569 | 0.556 | 0.482 | 0.303 | 0.481 | 1.04 | 1.12 | 1.24 | 1.16
ChaGo-K-1 | – | – | – | – | – | – | – | – | – | 0.458 | 0.413 | 0.404 | 0.312 | 0.455 | 0.911 | 0.861 | 1.06 | 1.22
EBC-1 | 1.07 | 0.935 | 0.914 | 0.993 | 0.71 | 0.649 | 0.563 | 0.264 | 0.24 | 0.686 | 0.691 | 0.664 | 0.39 | 0.474 | 0.622 | 0.545 | 0.587 | 0.603
EKVX | 0.946 | 1.01 | 1.01 | 0.988 | 0.923 | 1.05 | 0.889 | 0.682 | 1.07 | – | 0.763 | 0.766 | 0.641 | 0.966 | 1.01 | 0.738 | 1.05 | 1.42
EMC-BAC-2 | 0.83 | 0.796 | 0.816 | 0.892 | 0.744 | 0.746 | 0.574 | 0.666 | 0.784 | – | 0.444 | 0.433 | 0.336 | 0.388 | 1.11 | 1.04 | 1.04 | 1.09
EPLC-272H | 1 | 1.1 | 1.13 | 1.28 | – | 1.1 | 0.843 | 0.962 | 0.864 | 0.784 | 0.931 | 0.717 | 0.749 | 0.964 | 0.897 | 0.836 | 1.05 | 0.956
H3255 | 0.941 | 0.856 | 0.866 | 0.929 | 0.647 | 0.813 | 0.684 | 0.669 | 0.664 | 0.632 | 0.568 | 0.626 | 0.573 | 0.595 | 0.716 | 0.772 | 1.02 | 0.917
HARA | 1.02 | 0.877 | 0.927 | 0.797 | 0.669 | 0.89 | 0.646 | 0.732 | 1.09 | – | 0.971 | 0.799 | 0.647 | 1.12 | 0.605 | 1.05 | 1.17 | 1.34
HCC-15 | 0.825 | 0.766 | 0.843 | 0.952 | 0.831 | 0.971 | 0.909 | 0.912 | 0.893 | 0.716 | 0.673 | 0.743 | 0.578 | 0.63 | 1.07 | 0.929 | 1.09 | 1.05
HCC-44 | 0.618 | 0.671 | 0.617 | 0.65 | 0.751 | 0.792 | 0.789 | 0.732 | 0.807 | 0.952 | 1.03 | 1.08 | 1 | 0.956 | 0.909 | 0.856 | 0.845 | 0.992
HCC-78 | 0.448 | 0.508 | 0.427 | 0.492 | – | 0.445 | 0.346 | 0.305 | 0.332 | – | 0.847 | 0.733 | 0.452 | 0.915 | 0.314 | 0.521 | 0.472 | 0.506
